Target: T1, human GLP-1R (Homo sapiens, UniProt P43220)
T1 construct: expressed in transfected cells; host or cells: PEAK RAPID-derived Gα15-trans48 LD stably expressing cells (PRG48), transiently transfected with Lipofectamine 2000
Assay: GLP-1 receptor in vitro calcium assay (intracellular free calcium concentration change induced via GLP-1 receptor)
Format: cell-based
Settings: for EC50: PRG48 cells transfected with human GLP-1R, compound added with 250 pM GLP-1, Ca2+ response ΔF/F, read-out: Ca EC50 value; for GLP-1 receptor action enhancing activity (vs BETP): intensity compared to BETP, activity of BETP as 1
Protocol: The supernatant was removed by centrifugation (1,200 rpm, 3 min), and the cells were suspended at 4×10^6 cells/mL in 5% FBS DMEM/Ham's F-12. 1.0 mL thereof was seeded in a 15 cm dish and cultured (37° C., 5% CO2) overnight. The next day, the medium of the cultured PRG48 cells was replaced with 5% FBS DMEM/Ham's F-12 medium (30 mL), human GLP-1R gene mixture solution (GLP-1R/pc.DNA3.1(+) 60 μg) prepared using 6.0 mL of Opti-MEM (invitrogen) and 120 μL of Lipofectamin 2000 (invitrogen) was slowly added to the cells, and cultured (37° C., 5% CO2) for 6 hr to introduce the gene. […] The cells were counted, suspended at 0.5×10^6 cells/mL in 5% FBS DMEM/Ham's F-12 medium, and seeded in each well of D-Lysine coat 96 well plate (BD Bioscience) at 7.0×10^4 cells. After static adhesion at room temperature for 1 hr, the cells were cultured overnight (37° C., 5% CO2). The medium in the Cultured 96 well was entirely discarded, 150 μL of intracellular calcium measurement staining solution Calcium assay kit Express (Molecular Device) diluted 80-fold with Assay buffer (20 mM HEPES, 146 mM NaCl, 1 mM MgSO4, 1.39 mM glucose, 1 mM CaCl2, 2.5 mM Probenecid, 0.05% Casein Enzymatic Hydrolysate) was added, and the mixture was stood at 37° C. for 30 min, and then at room temperature for 45 min to perform staining. After staining, 250 pM GLP-1 and the compound were added and Ca^2+ response was observed by using FDSSμCELL (Hamamatsu Photonics K.K.). Each evaluation compound was dissolved in DMSO, further diluted with Assay buffer and used.
For evaluation, the fluorescence values (Ex480:Em540) before and after addition were measured, and changes in the intracellular free calcium concentration produced via GLP-1R receptor by the addition were quantitatively examined. For the measurement and analysis of the fluorescence values, a soft (FDSS7000EX) attached to the FDSSμCELL was used, and ΔF/F value ((maximum fluorescence value after stimulation−minimum fluorescence value after stimulation)/fluorescence value before stimulation) was calculated. Using the obtained ΔF/F values, EC50 value was calculated by Prism5.

T1 sequence (P43220 24-463): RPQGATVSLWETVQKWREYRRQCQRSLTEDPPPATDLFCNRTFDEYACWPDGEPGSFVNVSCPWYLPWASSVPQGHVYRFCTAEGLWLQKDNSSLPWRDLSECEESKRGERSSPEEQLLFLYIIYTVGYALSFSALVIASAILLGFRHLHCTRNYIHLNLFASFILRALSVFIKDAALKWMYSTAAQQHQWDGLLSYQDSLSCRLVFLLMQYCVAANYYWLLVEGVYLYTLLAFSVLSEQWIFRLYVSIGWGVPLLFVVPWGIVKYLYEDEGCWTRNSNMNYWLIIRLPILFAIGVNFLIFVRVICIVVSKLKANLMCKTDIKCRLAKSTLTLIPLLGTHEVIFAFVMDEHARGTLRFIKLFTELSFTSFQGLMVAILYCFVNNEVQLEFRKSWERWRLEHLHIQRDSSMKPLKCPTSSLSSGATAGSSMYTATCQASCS

Row | SMILES | EC50 [nM] | GLP-1 receptor action enhancing activity (vs BETP)
1 | CCCCC(CC)CNC(=O)[C@@H](CC1CCCCC1)NC(=O)Nc1ccc(N(CCCSC)S(=O)(=O)c2ccc(C(C)(C)C)cc2)cc1 (some centres unmarked) [Compound 111] | 3.3 | 7694
2 | Cc1ccc(S(=O)(=O)Nc2ccc(NC(=O)N[C@H](Cc3ccccc3)c3nc(C(C)(C)C)no3)cc2)cc1 [Compound 70] | 1300 | 20
3 | Cc1ccc(S(=O)(=O)Nc2ccc(NC(=O)N[C@H](CC(=O)OC(C)(C)C)Cc3ccccc3)cc2)cc1 [Compound 76] | 1600 | 16
4 | Cc1cc(C)c(S(=O)(=O)Nc2ccc(NC(=O)N[C@@H](Cc3ccccc3)C(=O)OC(C)(C)C)cc2)c(C)c1 [Compound 80] | 380 | 67
5 | Cc1ccc(S(=O)(=O)Nc2ccc(NC(=O)N[C@@H](CC(C)C)C(=O)OC(C)(C)C)cc2)cc1 [Compound 65] | 2000 | 13
6 | CC(C)CCCC(C)NC(=O)[C@H](CC1CCCCC1)NC(=O)Nc1ccc(NS(=O)(=O)c2ccc(C(C)(C)C)cc2)cc1 (some centres unmarked) [Compound 56] | 3.8 | 6569
7 | CC(C)CCCC(C)NC(=O)[C@@H](Cc1cccnc1)NC(=O)Nc1ccc(NS(=O)(=O)c2ccc(C(C)(C)C)cc2)cc1 (some centres unmarked) [Compound 102] | 130 | 193
8 | Cc1ccc(S(=O)(=O)Nc2ccc(NC(=O)N[C@H](CC3CCCCC3)C(=O)NC3CCCCCC3)cc2)cc1 [Compound 41] | 76 | 333
9 | Cc1ccc(S(=O)(=O)Nc2ccc(NC(=O)N[C@H](Cc3ccccc3)C(=O)NC3CCCCCCC3)cc2)cc1 [Compound 52] | 170 | 144
10 | CC(C)(C)OC(=O)[C@H](Cc1ccccc1)NC(=O)Nc1ccc(NS(=O)(=O)c2ccc(C(F)(F)F)cc2)cc1 [Compound 81] | 1000 | 24
11 | CC(C)(C)OC(=O)[C@H](Cc1ccccc1)NC(=O)Nc1ccc(NS(=O)(=O)c2ccc(C(C)(C)C)cc2)cc1 [Compound 73] | 310 | 83
12 | CC(C)CCCC(C)NC(=O)[C@@H](Cc1ccncc1)NC(=O)Nc1ccc(NS(=O)(=O)c2ccc(C(C)(C)C)cc2)cc1 (some centres unmarked) [Compound 106] | 390 | 64
13 | Cc1ccc(S(=O)(=O)Nc2ccc(NC(=O)N[C@H](Cc3ccccc3)c3nnc(S)n3-c3ccccc3)cc2)cc1 [Compound 90] | 1400 | 18
14 | Cc1ccc(S(=O)(=O)Nc2ccc(NC(=O)N[C@H](Cc3ccccc3)C(=O)NCC3CCCCC3)cc2)cc1 [Compound 8] | 500 | 50
15 | CSCCCN(c1ccc(NC(=O)N[C@H](CC2CCCCC2)C(=O)NC(C)CCCC(C)C)cc1)S(=O)(=O)c1ccc(C(C)(C)C)cc1 (stereo partly drawn) [Compound 97, (2R)-2-({4-[(4-tert-butylphenyl)sulfonyl-(3-methylsulfanylpropyl)amino]phenyl}carbamoylamino)-3-cyclohexyl-N-(1,5-dimethylhexyl)propanamide] | 63 | 399
16 | CC(C)CCCC(C)NC(=O)[C@@H](CC1CCCCC1)NC(=O)Nc1cccc(NS(=O)(=O)c2ccc(C(C)(C)C)cc2)c1 (some centres unmarked) [Compound 92] | 24 | 1028
17 | Cc1ccc(S(=O)(=O)Nc2ccc(NC(=O)N[C@H](CC(C)C)C(=O)NCCC3CCCCC3)cc2)cc1 [Compound 48] | 280 | 92
18 | Cc1ccc(S(=O)(=O)Nc2ccc(NC(=O)N[C@@H](Cc3ccc(OC(C)(C)C)cc3)C(=O)OC(C)(C)C)cc2)cc1 [Compound 66] | 740 | 34
19 | Cc1ccc(S(=O)(=O)Nc2ccc(NC(=O)N[C@H](CC(C)C)C(=O)N[C@H](Cc3ccccc3)c3nc(C(C)(C)C)no3)cc2)cc1 [Compound 89] | 260 | 98
20 | COc1cc(NC(=O)N[C@H](Cc2ccccc2)C(=O)OC(C)(C)C)ccc1NS(=O)(=O)c1ccc(C)cc1 [Compound 88] | 1300 | 20
21 | Cc1ccc(S(=O)(=O)Nc2ccc(NC(=O)N[C@H](Cc3ccccc3)C(=O)NC3CCCCC3)cc2)cc1 [Compound 3] | 1700 | 15
22 | CCCCCCNc1ccc(S(=O)(=O)Nc2cccc(NC(=O)N[C@H](CC3CCCCC3)C(=O)NCC(CC)CCCC)c2)cn1 (some centres unmarked) [Compound 114] | 30 | 850

More lines, now with the values ahead:

Row | EC50 [nM] | GLP-1 receptor action enhancing activity (vs BETP) | SMILES
23 | 1900 | 13 | Cc1ccc(S(=O)(=O)Nc2ccc(NC(=O)N[C@@H](Cc3ccccc3)C(=O)OC(C)(C)C)cc2)cc1 [Compound 63]
24 | 160 | 160 | Cc1ccc(S(=O)(=O)Nc2ccc(NC(=O)N[C@H](Cc3c[nH]c4ccccc34)C(=O)NC3CCCCCC3)cc2)cc1 [Compound 43]
25 | 930 | 27 | Cc1ccc(S(=O)(=O)Nc2ccc(NC(=O)N[C@H](Cc3ccccc3)C(=O)OC(C)(C)C)cc2)cc1 [Compound 62, tert-butyl (2R)-3-phenyl-2-{[4-(p-tolylsulfonylamino)phenyl]carbamoylamino}propanoate]
26 | 1800 | 14 | Cc1ccc(S(=O)(=O)Nc2ccc(NC(=O)N[C@H](Cc3ccccc3)C(=O)NCc3ccccc3)cc2)cc1 [Compound 14]
27 | 130 | 199 | CCCCC(CC)CNC(=O)[C@@H](Cc1c[nH]c2ccccc12)NC(=O)Nc1ccc(NS(=O)(=O)c2ccc(C)cc2)cc1 (some centres unmarked) [Compound 40]
28 | 540 | 47 | Cc1ccc(S(=O)(=O)Nc2ccc(NC(=O)N[C@H](Cc3ccccc3)C(=O)NCc3cccs3)cc2)cc1 [Compound 12]
29 | 42 | 599 | Cc1ccc(S(=O)(=O)Nc2ccc(NC(=O)N[C@H](Cc3ccccc3)C(=O)NCC(F)(F)F)cc2)cc1 [Compound 15]
30 | 9 | 2786 | CCCCC(CC)CNC(=O)[C@H](CC(C)C)NC(=O)Nc1ccc(NS(=O)(=O)c2ccc(C(C)(C)C)cc2)cc1 (some centres unmarked) [Compound 51]
31 | 45 | 560 | Cc1ccc(S(=O)(=O)Nc2ccc(NC(=O)N[C@H](Cc3ccccc3)C(=O)NC[C@H]3CCC4CC3C4(C)C)cc2)cc1 (some centres unmarked) [Compound 60]
32 | 680 | 37 | CCCCCCNC(=O)[C@@H](Cc1ccccc1)NC(=O)Nc1ccc(NS(=O)(=O)c2ccc(C)cc2)cc1 [Compound 2]
33 | 1200 | 21 | CCC(CC)CNC(=O)[C@@H](CC(C)C)NC(=O)Nc1ccc(NS(=O)(=O)c2ccc(C)cc2)cc1 [Compound 30]
34 | 280 | 91 | CCCCCCN(C)C(=O)[C@@H](Cc1ccccc1)NC(=O)Nc1ccc(NS(=O)(=O)c2ccc(C)cc2)cc1 [Compound 53]
